In patent US12336536B2, “Method for controlling herbicide resistant or tolerant weeds” (BASF Agro B.V., priority 2015, dated 2025):

Columns and labels:
Assay in all cases: Greenhouse test, solo and combination, post-emergence, 20 DAT
LOLRI = format: in vivo, Lolium rigidum
Procedure: (§1) The test plants have been seeded, separately for each species, in plastic containers in sandy loamy soil containing 5% of organic matter.
(§2) For the post-emergence treatment, the plants were first grown to the 2 leaf station (GS 12) and applied at GS 12-19 depending on the species. The herbicidal compositions were suspended or emulsified in water as distribution medium and sprayed using finely distributing nozzles.
(§3) The plants have been cultivated due to their individual requirements at 10-25° C. and 20-35° C. The plants were irrigated due to their necessity.
(§4) The racemic mixture (±)-2-exo-(2-Methylbenzyloxy)-1-methyl-4-isopropyl-7-oxabicyclo[2.2.1]heptane was used as herbicide A and formulated as emulsifiable concentrate having an active ingredient concentration of 750 g/l.
(§5) Cyhalofop-butyl (herbicide B.5) was used as an emulsifiable concentrate (EC) formulation having an active ingredient concentration of 200 g/l.
(§6) Metsulfuron-methyl (herbicide B.53) was used as a water soluble granule (SG) formulation having an active ingredient concentration of 20%.
(§7) Bispyribac-sodium (herbicide B.23) was used as a soluble concentrate (SL) formulation having an active ingredient concentration of 408 g/l.
(§8) Quizalofop-P-ethyl (herbicide B.217) was used as a suspension concentrate (SC) formulation having an active ingredient concentration of 106 g/l.
(§9) In the following experiments, the herbicidal activity for the individual herbicide compounds (solo and mixture applications) was assessed 20 days after treatment (DAT).
(§10) The evaluation for the damage on undesired weeds caused by the chemical compositions was carried out using a scale from 0 to 100%, compared to the untreated control plants. Here, 0 means no damage and 100 means complete destruction of the plants.
(§11) The plants used in the greenhouse experiments belonged to the following species:
(§12) E=X+Y−(X·Y/100) • where X=effect in percent using herbicide A at an application rate a; • Y=effect in percent using herbicide B at application rate b; • E=expected effect (in %) of herbicide A+herbicide B at application rates a+b.
(§13) The value E corresponds to the effect (plant damage or injury) which is to be expected if the activity of the individual compounds is additive. If the observed effect is higher than the value E calculated according to the Colby equation, a synergistic effect is present.
(§14) Tables 3 to 6 below relate the herbicidal activity, in greenhouse trials, of the individual actives and the combination applied at different rates and ratios, in post-emergence application at 20 days after treatment (DAT).

PAPRH = format: in vivo, Papaver rhoeas
Procedure: as §1, §2, §3, §4, §5, §6, §7, §8, §9, §10, §11, §12, §13, §14

ALOMY = format: in vivo, Alopecurus myosuroides
Procedure: as §1, §2, §3, §4, §5, §6, §7, §8, §9, §10, §11, §12, §13, §14

GALAP = format: in vivo, Galium aparine
Procedure: as §1, §2, §3, §4, §5, §6, §7, §8, §9, §10, §11, §12, §13, §14

BRSNW = format: in vivo, Brassica napus
Procedure: as §1, §2, §3, §4, §5, §6, §7, §8, §9, §10, §11, §12, §13, §14

MATIN = format: in vivo, Matricaria inodora
Procedure: as §1, §2, §3, §4, §5, §6, §7, §8, §9, §10, §11, §12, §13, §14

BROST = format: in vivo, Bromus sterilis
Procedure: as §1, §2, §3, §4, §5, §6, §7, §8, §9, §10, §11, §12, §13, §14

Compound: CCOC(=O)[C@@H](C)Oc1ccc(Oc2cnc3cc(Cl)ccc3n2)cc1 [quizalofop-P-ethyl]
- Herbicidal activity (LOLRI; solo application 15 g ai/ha): 80%
- Herbicidal activity (LOLRI; solo application 30 g ai/ha): 95%
- Herbicidal activity (PAPRH; solo application 15 g ai/ha): 25%
- Herbicidal activity (ALOMY; solo application 15 g ai/ha): 60%
- Herbicidal activity (ALOMY; solo application 30 g ai/ha): 65%
- Herbicidal activity (ALOMY; solo application 120 g ai/ha): 85%
- Herbicidal activity (GALAP; solo application 15 g ai/ha): 0%
- Herbicidal activity (GALAP; solo application 30 g ai/ha): 0%
- Herbicidal activity (BRSNW; solo application 120 g ai/ha): 0%
- Herbicidal activity (MATIN; solo application 15 g ai/ha): 0%
- Herbicidal activity (MATIN; solo application 30 g ai/ha): 0%
- Herbicidal activity (MATIN; solo application 60 g ai/ha): 10%
- Herbicidal activity (BROST; solo application 15 g ai/ha): 15%
- Herbicidal activity (BROST; solo application 30 g ai/ha): 50%
- Herbicidal activity (BROST; solo application 60 g ai/ha): 80%
- Herbicidal activity (BROST; solo application 120 g ai/ha): 95%

Compound: COc1cc(OC)nc(Oc2cccc(Oc3nc(OC)cc(OC)n3)c2C(=O)O)n1 [bispyribac-sodium]
- Herbicidal activity (LOLRI; solo application 60 g ai/ha): 5%
- Herbicidal activity (PAPRH; solo application 15 g ai/ha): 0%
- Herbicidal activity (PAPRH; solo application 60 g ai/ha): 50%
- Herbicidal activity (PAPRH; solo application 120 g ai/ha): 50%
- Herbicidal activity (ALOMY; solo application 30 g ai/ha): 0%
- Herbicidal activity (ALOMY; solo application 60 g ai/ha): 0%
- Herbicidal activity (GALAP; solo application 15 g ai/ha): 40%
- Herbicidal activity (GALAP; solo application 30 g ai/ha): 65%
- Herbicidal activity (GALAP; solo application 120 g ai/ha): 95%
- Herbicidal activity (BRSNW; solo application 15 g ai/ha): 98%
- Herbicidal activity (MATIN; solo application 60 g ai/ha): 85%
- Herbicidal activity (MATIN; solo application 120 g ai/ha): 90%

Compound: CCCCOC(=O)[C@@H](C)Oc1ccc(Oc2ccc(C#N)cc2F)cc1 [cyhalofop-butyl]
- Herbicidal activity (LOLRI; solo application 12.5 g ai/ha): 25%
- Herbicidal activity (PAPRH; solo application 12.5 g ai/ha): 0%
- Herbicidal activity (PAPRH; solo application 50 g ai/ha): 0%
- Herbicidal activity (ALOMY; solo application 25 g ai/ha): 5%
- Herbicidal activity (ALOMY; solo application 50 g ai/ha): 20%
- Herbicidal activity (GALAP; solo application 50 g ai/ha): 0%
- Herbicidal activity (GALAP; solo application 100 g ai/ha): 0%
- Herbicidal activity (BRSNW; solo application 100 g ai/ha): 0%
- Herbicidal activity (MATIN; solo application 100 g ai/ha): 0%
- Herbicidal activity (BROST; solo application 100 g ai/ha): 0%
